Experimental data: patent publication US10829481B2, “Benzimidazole derivatives as modulators of ROR-gamma” (Vitae Pharmaceuticals, LLC, priority 2016, dated 2020)

Tests used:
[1] = molecular target: recombinant RORγ Ligand Binding Domain (LBD) protein (Homo sapiens (Human), UniProt P51449); assay: Radio-Ligand RORγ Binding Assay (Assay 1); details: competition with 25-hydroxy [26,27-3H]-cholesterol, SPA
Summary of the method: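 His-GST-fused RORγ ligand-binding domain (24 nM solution) competed between compounds and tritiated 25-hydroxycholesterol (8.6 nM solution), read by SPA after brief rt incubations in pH 7.4 HEPES/glycerol/detergent buffer. Four-parameter curve fitting gave IC50 at inflection, converted to Ki using radioligand concentration and KD.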

[2] = molecular target: full-length RORγt in Jurkat cells (Homo sapiens (Human), UniProt P51449); assay: RORγt 5×RORE Assay in Jurkat Cells (Assay 2); assay type: cell-based; details: 5×RORE Nanoluc luciferase reporter
Chain of full-length RORγt in Jurkat cells (P51449 other isoform, or with tags, fused parts or gaps): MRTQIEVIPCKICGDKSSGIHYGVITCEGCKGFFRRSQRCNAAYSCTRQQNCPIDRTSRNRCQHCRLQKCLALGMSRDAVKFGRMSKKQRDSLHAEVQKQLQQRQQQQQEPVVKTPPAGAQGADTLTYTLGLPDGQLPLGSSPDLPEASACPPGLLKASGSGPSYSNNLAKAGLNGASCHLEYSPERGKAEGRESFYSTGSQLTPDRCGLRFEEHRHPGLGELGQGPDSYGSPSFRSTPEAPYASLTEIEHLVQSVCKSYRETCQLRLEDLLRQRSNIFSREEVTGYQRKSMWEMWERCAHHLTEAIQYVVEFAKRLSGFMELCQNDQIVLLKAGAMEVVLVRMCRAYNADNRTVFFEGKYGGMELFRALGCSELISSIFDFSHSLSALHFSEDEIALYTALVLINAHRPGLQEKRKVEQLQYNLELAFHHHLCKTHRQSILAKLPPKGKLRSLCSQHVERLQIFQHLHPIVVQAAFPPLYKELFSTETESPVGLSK

Chain of recombinant RORγ Ligand Binding Domain (LBD) protein (P51449 269-508): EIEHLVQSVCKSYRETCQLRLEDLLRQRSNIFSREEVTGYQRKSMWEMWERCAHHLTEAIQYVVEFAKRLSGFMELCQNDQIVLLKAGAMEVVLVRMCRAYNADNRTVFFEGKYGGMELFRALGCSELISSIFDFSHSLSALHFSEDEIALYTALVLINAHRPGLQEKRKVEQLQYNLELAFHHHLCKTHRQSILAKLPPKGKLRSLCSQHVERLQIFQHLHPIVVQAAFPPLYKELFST

| Structure (SMILES) | Ki [1] [nM] | IC50 [2] [nM] |
| --- | --- | --- |
| CCS(=O)(=O)c1ccc([C@H](CO)NC(=O)c2ccc3c(c2)nc(C(F)(F)F)n3Cc2cccc3c2OCO3)cc1 [I-81, (R)-1-(benzo[d][1,3]dioxol-4-ylmethyl)-N-(1-(4-(ethylsulfonyl)phenyl)-2-hydroxyethyl)-2-(trifluoromethyl)-1H-benzo[d]imidazole-5-carboxamide] | < 100 | < 100 |
| CCS(=O)(=O)c1ccc(CNC(=O)c2ccc3c(c2)nc(C(F)(F)F)n3Cc2cc(OC)cc(OC)c2)cc1 [I-82, 1-(3,5-dimethoxybenzyl)-N-(4-(ethylsulfonyl)benzyl)-2-(trifluoromethyl)-1H-benzo[d]imidazole-5-carboxamide] | < 100 | > 1000 |
| CCS(=O)(=O)c1ccc(CNC(=O)c2ccc3c(c2)nc(C(F)(F)F)n3Cc2ccc(OC)c(C#N)c2)cc1 [I-83, 1-(3-cyano-4-methoxybenzyl)-N-(4-(ethylsulfonyl)benzyl)-2-(trifluoromethyl)-1H-benzo[d]imidazole-5-carboxamide] | < 100 | 100 to 1000 |
| CCS(=O)(=O)c1ccc(CNC(=O)c2ccc3c(c2)nc(C(F)(F)F)n3Cc2ccc(OC(F)(F)F)cc2)cc1 [I-84, N-(4-(ethylsulfonyl)benzyl)-1-(4-(trifluoromethoxy)benzyl)-2-(trifluoromethyl)-1H-benzo[d]imidazole-5-carboxamide] | < 100 | 100 to 1000 |
| CCS(=O)(=O)c1ccc(CNC(=O)c2ccc3c(c2)nc(C(F)(F)F)n3Cc2ccc(C#N)cc2)cc1 [I-85, 1-(4-cyanobenzyl)-N-(4-(ethylsulfonyl)benzyl)-2-(trifluoromethyl)-1H-benzo[d]imidazole-5-carboxamide] | < 100 | > 1000 |
| CCS(=O)(=O)c1ccc(CNC(=O)c2ccc3c(c2)nc(C(F)(F)F)n3Cc2cccc(OC)c2)cc1 [I-88, N-(4-(ethylsulfonyl)benzyl)-1-(3-methoxybenzyl)-2-(trifluoromethyl)-1H-benzo[d]imidazole-5-carboxamide] | < 100 | < 100 |
| CCS(=O)(=O)c1ccc(CNC(=O)c2ccc3c(c2)nc(C(F)(F)F)n3Cc2ccnc(OC)c2)cc1 [I-89, N-(4-(ethylsulfonyl)benzyl)-1-((2-methoxypyridin-4-yl)methyl)-2-(trifluoromethyl)-1H-benzo[d]imidazole-5-carboxamide] | < 100 | 100 to 1000 |
| CCS(=O)(=O)c1ccc(CNC(=O)c2ccc3c(c2)nc(C(F)(F)F)n3Cc2cccc(C#N)c2)cc1 [I-90, 1-(3-cyanobenzyl)-N-(4-(ethylsulfonyl)benzyl)-2-(trifluoromethyl)-1H-benzo[d]imidazole-5-carboxamide] | < 100 | < 100 |
| CCS(=O)(=O)c1ccc(CNC(=O)c2ccc3c(c2)nc(C(F)(F)F)n3C2(c3cccc(C#N)c3)CC2)cc1 [I-92, 1-(1-(3-cyanophenyl)cyclopropyl)-N-(4-(ethylsulfonyl)benzyl)-2-(trifluoromethyl)-1H-benzo[d]imidazole-5-carboxamide] | < 100 | 100 to 1000 |
| CCS(=O)(=O)c1ccc(CNC(=O)c2ccc3c(c2)nc(C(F)(F)F)n3[C@@H](C)c2cccc(C#N)c2)cc1 [I-93.1, (S)-1-(1-(3-cyanophenyl)ethyl)-N-(4-(ethylsulfonyl)benzyl)-2-(trifluoromethyl)-1H-benzo[d]imidazole-5-carboxamide] | < 100 | < 100 |
| CCS(=O)(=O)c1ccc(CNC(=O)c2ccc3c(c2)nc(C(F)(F)F)n3Cc2cc(C#N)ccc2F)cc1 [I-94, 1-(5-cyano-2-fluorobenzyl)-N-(4-(ethylsulfonyl)benzyl)-2-(trifluoromethyl)-1H-benzo[d]imidazole-5-carboxamide] | < 100 | 100 to 1000 |
| CCS(=O)(=O)c1ccc(CNC(=O)c2ccc3c(c2)nc(C(F)(F)F)n3Cc2cccc3occc23)cc1 [I-95, 1-(benzofuran-4-ylmethyl)-N-(4-(ethylsulfonyl)benzyl)-2-(trifluoromethyl)-1H-benzo[d]imidazole-5-carboxamide] | < 100 | < 100 |

Now from value to molecule:

| Ki [1] [nM] | IC50 [2] [nM] | Structure (SMILES) |
| --- | --- | --- |
| < 100 | < 100 | CCS(=O)(=O)c1ccc(CNC(=O)c2ccc3c(c2)nc(C(F)(F)F)n3Cc2cccc3[nH]ncc23)cc1 [I-97, 1-((1H-indazol-4-yl)methyl)-N-(4-(ethylsulfonyl)benzyl)-2-(trifluoromethyl)-1H-benzo[d]imidazole-5-carboxamide] |
| < 100 | < 100 | CCS(=O)(=O)c1ccc(CNC(=O)c2ccc3c(c2)nc(C(F)(F)F)n3Cc2cccc3c2OCO3)cc1 [I-98, 1-(benzo[d][1,3]dioxol-4-ylmethyl)-N-(4-(ethylsulfonyl)benzyl)-2-(trifluoromethyl)-1H-benzo[d]imidazole-5-carboxamide] |
| < 100 | 100 to 1000 | CCS(=O)(=O)c1ccc(CNC(=O)c2ccc3c(c2)nc(C(F)(F)F)n3Cc2cccc(C(=O)OC)c2)cc1 [I-99, methyl 3-((5-((4-(ethylsulfonyl)benzyl)carbamoyl)-2-(trifluoromethyl)-1H-benzo[d]imidazol-1-yl)methyl)benzoate] |
| < 100 | 100 to 1000 | CCS(=O)(=O)c1ccc(CNC(=O)c2ccc3c(c2)nc(C(F)(F)F)n3Cc2cncc3[nH]ccc23)cc1 [I-100, 1-((1H-pyrrolo[2,3-c]pyridin-4-yl)methyl)-N-(4-(ethylsulfonyl)benzyl)-2-(trifluoromethyl)-1H-benzo[d]imidazole-5-carboxamide] |
| < 100 | > 1000 | CCS(=O)(=O)c1ccc([C@H](CO)NC(=O)c2ccc3c(c2)nc(C2CC2)n3Cc2cccc3c2OC(C)(C)C3)cc1 [I-101, (R)-2-cyclopropyl-1-((2,2-dimethyl-2,3-dihydrobenzofuran-7-yl)methyl)-N-(1-(4-(ethylsulfonyl)phenyl)-2-hydroxyethyl)-1H-benzo[d]imidazole-5-carboxamide] |
| < 100 | < 100 | CCS(=O)(=O)c1ccc([C@H](CO)NC(=O)c2ccc3c(c2)nc(C2CC2)n3Cc2cccc3c2OCC3)cc1 [I-102, (R)-2-cyclopropyl-1-((2,3-dihydrobenzofuran-7-yl)methyl)-N-(1-(4-(ethylsulfonyl)phenyl)-2-hydroxyethyl)-1H-benzo[d]imidazole-5-carboxamide] |
| < 100 | 100 to 1000 | CCS(=O)(=O)c1ccc(CNC(=O)c2ccc3c(c2)nc(C2CC2)n3Cc2cc(OC)cc(OC)c2)cc1 [I-103, 2-cyclopropyl-1-(3,5-dimethoxybenzyl)-N-(4-(ethylsulfonyl)benzyl)-1H-benzo[d]imidazole-5-carboxamide] |
| < 100 | > 1000 | CCS(=O)(=O)c1ccc(CNC(=O)c2ccc3c(c2)nc(C2CC2)n3Cc2ccc(OC(F)(F)F)cc2)cc1 [I-104, 2-cyclopropyl-N-(4-(ethylsulfonyl)benzyl)-1-(4-(trifluoromethoxy)benzyl)-1H-benzo[d]imidazole-5-carboxamide] |
| < 100 | 100 to 1000 | CCS(=O)(=O)c1ccc(CNC(=O)c2ccc3c(c2)nc(C2CC2)n3Cc2ccccc2OC(F)(F)F)cc1 [I-106, 2-cyclopropyl-N-(4-(ethylsulfonyl)benzyl)-1-(2-(trifluoromethoxy)benzyl)-1H-benzo[d]imidazole-5-carboxamide] |
| < 100 | < 100 | CCS(=O)(=O)c1ccc(CNC(=O)c2ccc3c(c2)nc(C2CC2)n3Cc2cccc(OC(F)(F)F)c2)cc1 [I-109, 2-cyclopropyl-N-(4-(ethylsulfonyl)benzyl)-1-(3-(trifluoromethoxy)benzyl)-1H-benzo[d]imidazole-5-carboxamide] |
| < 100 | < 100 | CCS(=O)(=O)c1ccc(CNC(=O)c2ccc3c(c2)nc(C2CC2)n3Cc2cccc(OC(F)F)c2)cc1 [I-113, 2-cyclopropyl-1-(3-(difluoromethoxy)benzyl)-N-(4-(ethylsulfonyl)benzyl)-1H-benzo[d]imidazole-5-carboxamide] |
| < 100 | < 100 | CCS(=O)(=O)c1ccc(CNC(=O)c2ccc3c(c2)nc(C2CC2)n3Cc2cc(OC)cc(OC(F)(F)F)c2)cc1 [I-115, 2-cyclopropyl-N-(4-(ethylsulfonyl)benzyl)-1-(3-methoxy-5-(trifluoromethoxy)benzyl)-1H-benzo[d]imidazole-5-carboxamide] |
| < 100 | < 100 | CCS(=O)(=O)c1ccc(CNC(=O)c2ccc3c(c2)nc(C2CC2)n3[C@@H](C)c2cccc3c2OC(F)(F)O3)cc1 [I-116, (S)-2-cyclopropyl-1-(1-(2,2-difluorobenzo[d][1,3]dioxol-4-yl)ethyl)-N-(4-(ethylsulfonyl)benzyl)-1H-benzo[d]imidazole-5-carboxamide] |
| < 100 | > 1000 | CCS(=O)(=O)c1ccc(CNC(=O)c2ccc3c(c2)nc(C2CC2)n3Cc2cccc3c2OC(C)(C)C3)cc1 [I-118, 2-cyclopropyl-1-((2,2-dimethyl-2,3-dihydrobenzofuran-7-yl)methyl)-N-(4-(ethylsulfonyl)benzyl)-1H-benzo[d]imidazole-5-carboxamide] |
| < 100 | < 100 | CCS(=O)(=O)c1ccc(CNC(=O)c2ccc3c(c2)nc(C2CC2)n3Cc2cccc(OC)c2OC)cc1 [I-119, 2-cyclopropyl-1-(2,3-dimethoxybenzyl)-N-(4-(ethylsulfonyl)benzyl)-1H-benzo[d]imidazole-5-carboxamide] |
| < 100 | 100 to 1000 | O=C(O)CC1CCC(CNC(=O)c2ccc3c(c2)nc(C(F)(F)F)n3Cc2cccc3c2OC(F)(F)O3)CC1 (centres unmarked) [I-120, 2-(4-((1-((2,2-difluorobenzo[d][1,3]dioxol-4-yl)methyl)-2-(trifluoromethyl)-1H-benzo[d]imidazole-5-carboxamido)methyl)cyclohexyl)acetic acid] |
